We go through 3 compounds from patent US20240327382A1 (ALMAC DISCOVERY LIMITED, priority 2021, published 2024).

pIC50: −log10 of the molar value.

The nature of data set [1]: Kinetic solubility (KSol). Type of data set: physicochemical.
The nature of data set [2]: Thermodynamic solubility assay. The settings on record: aqueous buffer, thermodynamic from solid, PBS buffer pH 7.4, read-out: TSol. The class given is physicochemical. Here is the method: Test compound (˜0.5 mg, accurately weighed) was suspended in PBS buffer pH 7.4 (Dulbecco A) to a concentration of 1 mg/mL in a high recovery glass vial in duplicate. The suspensions were shaken at 300 rpm at rt for 64 h. About 250 μL of suspension were then transferred to a MultiScreen® Solubility filter plate (Millipore) in duplicate. Concentrations of the filtrates were then quantified against a 5-point calibration curve in a mixture of acetonitrile/PBS buffer (top concentration […]). After filtration and matrix match, the calibration and assay plates were analysed on a Bioteck Synergy 4 plate reader (240-400 nm). Final concentration of the test compound in the filtrate was calculated using the slope of the calibration curve.

A further data set in a line: In vivo mouse PK. The following applies: C57BL/6N mice, IV 1 mg/kg.
Data set [3] in a line: Caco-2 permeability assay. The following applies: human, apical to basolateral (A:B), read-out: caco-2 Papp AB. The class given is in vitro ADME. Here is the method: Caco-2 cells are commonly used as an in vitro model for the prediction of human intestinal absorption of test compounds. When cultured, Caco-2 cells (derived from a human colorectal carcinoma) spontaneously differentiate into monolayers of polarised enterocytes. The cells are seeded on multiwell-insert plates and form a confluent monolayer over 20 d before the assay. On day 20, compound was added to the apical side of the membrane and the flux of the compound across the monolayer was monitored over 2 h. All data was generated at Cyptotex.
(In general: Caco-2 monolayers are a common model of the intestinal barrier.)

A further data set addresses T1, USP19 (Homo sapiens, UniProt O94966).
T1 construct: expressed in transfected cells; host or cells: HEK293T
T1 sequence (O94966 1-1318): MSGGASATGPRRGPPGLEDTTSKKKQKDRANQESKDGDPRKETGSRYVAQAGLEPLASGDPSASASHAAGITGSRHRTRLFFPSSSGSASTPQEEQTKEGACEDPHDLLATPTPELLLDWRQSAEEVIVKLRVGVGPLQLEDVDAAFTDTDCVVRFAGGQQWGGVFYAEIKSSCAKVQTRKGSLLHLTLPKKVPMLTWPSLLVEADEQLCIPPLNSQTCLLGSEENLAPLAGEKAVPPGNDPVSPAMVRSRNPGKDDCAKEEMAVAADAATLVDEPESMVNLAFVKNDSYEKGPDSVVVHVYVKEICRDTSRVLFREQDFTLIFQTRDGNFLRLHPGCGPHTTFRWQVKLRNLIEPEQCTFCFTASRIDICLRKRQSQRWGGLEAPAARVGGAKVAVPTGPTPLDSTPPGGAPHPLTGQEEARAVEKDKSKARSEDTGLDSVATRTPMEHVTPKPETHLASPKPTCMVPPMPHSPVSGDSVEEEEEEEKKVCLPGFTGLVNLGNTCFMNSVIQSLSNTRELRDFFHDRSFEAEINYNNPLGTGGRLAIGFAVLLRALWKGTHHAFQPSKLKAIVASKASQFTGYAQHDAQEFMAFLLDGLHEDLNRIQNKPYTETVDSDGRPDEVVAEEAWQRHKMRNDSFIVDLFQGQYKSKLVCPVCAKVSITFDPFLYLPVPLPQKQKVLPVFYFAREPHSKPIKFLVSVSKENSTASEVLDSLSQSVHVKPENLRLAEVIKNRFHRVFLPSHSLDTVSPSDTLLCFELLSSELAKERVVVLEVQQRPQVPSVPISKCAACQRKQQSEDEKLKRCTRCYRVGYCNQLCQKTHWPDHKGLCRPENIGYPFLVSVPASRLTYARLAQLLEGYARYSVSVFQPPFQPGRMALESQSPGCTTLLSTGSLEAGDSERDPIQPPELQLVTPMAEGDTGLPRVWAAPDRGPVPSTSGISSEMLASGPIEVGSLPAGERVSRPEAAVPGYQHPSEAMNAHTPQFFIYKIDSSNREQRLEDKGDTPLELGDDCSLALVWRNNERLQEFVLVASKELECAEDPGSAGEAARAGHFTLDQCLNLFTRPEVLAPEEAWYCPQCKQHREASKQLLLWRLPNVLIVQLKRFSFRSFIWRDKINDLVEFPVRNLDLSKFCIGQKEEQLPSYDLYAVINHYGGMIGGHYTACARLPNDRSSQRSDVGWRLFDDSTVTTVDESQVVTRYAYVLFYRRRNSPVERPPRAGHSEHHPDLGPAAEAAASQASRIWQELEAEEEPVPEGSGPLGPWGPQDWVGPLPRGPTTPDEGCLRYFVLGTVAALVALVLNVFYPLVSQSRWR
Briefly: Cellular target engagement using HTRF assay (USP19-Flag transfected cells). The class given is cell-based. The following applies: HEK293T cells; read-out: HTRF TE IC50. Here is the method: USP19 cellular target engagement was determined in a homogenous time resolved fluorescence (HTRF) assay using HA-tagged ubiquitin vinyl pentynyl sulfone (VPS) probe (UbiQ-193, UbiQ Bio) and a USP19-Flag overexpression construct. Inhibitors were stored as 10 mM DMSO stocks in an inert environment (low humidity, dark, low oxygen, rt) using the StoragePod® system (Roylan Developments). USP19-Flag transfected cells were incubated with serially diluted compound in an 11 point dose response curve (from 50 μM to 0.01 nM) for 2 h and then washed in PBS and lysed. Unless otherwise stated, all HTRF reagents were purchased from CisBio. HTRF assays using cell lysates were completed in 384 well plates (Greiner) in a 20 μL total volume. Cell lysates were incubated with HA-tagged ubiquitin VPS probe for 40 min in PPI detection buffer prior to addition of anti-HA and anti-FLAG HTRF detection reagents. HTRF was measured every 1 h for 18 h using a Pherastar FSX plate reader (excitation of 337 nm, emission of 620/665 nm). Data was normalised to DMSO (no compound controls) and fitted using IC50 values derived using Prism (GraphPad) using nonlinear regression curve fitting.
For orientation: Time-resolved FRET reads energy transfer from a long-lived donor to a nearby acceptor.

For the compound `C[C@H](CC(F)(F)F)C(=O)N1CC[C@@](O)(Cn2cnc(-c3ccccc3)cc2=O)C2(CCCC2)C1` [F 11 9 N W 11], in data set [1], the KSol stood at 1 µM.

Take `N[C@@H]1CCN(C(=O)N2CC[C@@](O)(Cn3cnc(-c4ccccc4)cc3=O)C3(CCCC3)C2)[C@H](c2ccccc2)C1` [F 11 9 N W032, reference compound]: in data set [2], the solubility thermodynamic at 64 h is 1 µM. Also, the clearance (commonly the rate of elimination divided by the concentration) in the data set “In vivo mouse PK” stood at 3 mL/min/kg. Also, in the data set “In vivo mouse PK” (read-out: IV t1/2 (converted)), the half-life is 2 h.

With `O=C(N1CC[C@@H](Cn2ccc(-c3ccccc3)cc2=O)C2(CCCC2)C1)N1CCNC[C@H]1c1ccccc1`, the solubility thermodynamic at 64 h in data set [2] was 1 µM. In data set [3], the Papp A→B at 2 h was 1 ×10⁻⁶ cm/s. Moreover, the negative logarithm of the IC50 (pIC50) (as a rule, the negative decadic logarithm of the IC50, by convention in mol/L) on USP19 is 5.52.
